Experimental data: patent publication US20240215582A1, “METHODS OF CONTROLLING PLANT PATHOGENS” (Valent BioSciences LLC, priority 2022, published 2024)
Where two headings read alike, the source gives them in different places.

Assays:
[1] = tested on: Botrytis cinerea; assay: Foliar application, inoculated plants, disease severity; settings: for Disease severity B. cinerea: carrier control severity 63.3; for percent control B. cinerea: vs carrier control
Procedure: (§1) Biological efficacy assays utilizing cervinomycins were conducted on Pseudoperonospora cubensis and Botrytis cinerea. […] Once plants had dried they were inoculated with the pathogen, then were stored in a controlled climate chamber under high humidity for 4-6 days. At the end of the experiment disease severity was determined based on the percentage of plant tissue that was visually symptomatic.

[2] = tested on: Podosphaera xanthii; assay: Host plant efficacy assay (cucumber); assay type: in vivo
[3] = tested on: Sclerotinia sclerotiorum; assay: Host plant efficacy assay (common bean); assay type: in vivo
[4] = tested on: Erysiphe diffusa; assay: Host plant efficacy assay (soybean); assay type: in vivo
[5] = tested on: Cochliobolus miyabeanus; assay: In vitro growth on cervinomycin-amended growth media; assay type: cell-based
[6] = tested on: Ustilago maydis; assay: as above; assay type: cell-based
[7] = tested on: Botrytis cinerea; assay: as above; assay type: cell-based
[8] = tested on: Zymoseptoria tritici; assay: Host plant efficacy assay (wheat); assay type: in vivo
[9] = tested on: Plasmospora viticola; assay: Efficacy on grape plants infected with Plasmospora viticola; settings: for % control Plasmospora viticola 1DAI: 1 day after infection; for % control Plasmospora viticola 1DAI / % control Plasmospora viticola 7DBI / % control Plasmospora viticola 1DB1: grape plants; for % control Plasmospora viticola 7DBI: 7 days before infection; for % control Plasmospora viticola 1DB1: 1 day before infection
Source text: Treatments occurred at either 1 day before infection (“1 DBI”), 7 days before infection (“7 DBI”) or 1 day after infection (“1 DAI”).

[10] = tested on: Fusarium graminearum; assay type: cell-based
[11] = tested on: Phakopsora pachyrhizi; assay: Host plant efficacy assay (soybean); assay type: in vivo
[12] = tested on: Pyrenophora teres; assay: Host plant efficacy assay (barley); assay type: in vivo
[13] = tested on: Pseudoperonospora cubensis; assay: Foliar application, inoculated plants, disease severity; settings: for Disease severity P. cubensis Oct. 20, 2020: carrier control severity 70; for Disease severity P. cubensis Oct. 27, 2020: carrier control severity 79; for Disease severity P. cubensis Jul. 28, 2020: carrier control severity 67
Procedure: as §1

[14] = tested on: Rhynchosporium secalis; assay: In vitro growth on cervinomycin-amended growth media; assay type: cell-based
[15] = tested on: Phytophthora infestans; assay type: in vivo
[16] = tested on: Alternaria solani; assay: Host plant efficacy assay (tomato); assay type: in vivo
[17] = tested on: Magnaporthe oryzae; assay type: in vivo
[18] = tested on: Cladosporium carpophilum; assay: In vitro growth on cervinomycin-amended growth media; assay type: cell-based
[19] = tested on: Zymoseptoria tritici; assay: as above; assay type: cell-based
[20] = tested on: Pseudoperonospora cubensis; assay: Field and greenhouse trials (cucumber, squash); assay type: in vivo; settings: P. cubensis
[21] = 1 ppm foliar, vs carrier control
[22] = 3 ppm foliar, vs carrier control
[23] = 6 ppm foliar, vs carrier control
[24] = 12 ppm foliar, vs carrier control
[25] = 25 ppm foliar, vs carrier control
[26] = 30 ppm foliar, vs carrier control
[27] = 50 ppm foliar, vs carrier control
[28] = 500 ppm A2, untreated severity 34
[29] = 1000 ppm A2, untreated severity 34
[30] = 1500 ppm A2, untreated severity 34

COc1cc2oc3c(c(=O)c2cc1OC)C(=O)c1c(ccc2cc4c(c(O)c12)C(=O)N1CCOC1(C)C4)C3=O (stereo not shown) [Cervinomycin A2, cervinomycin A2]
Disease severity B. cinerea ([1]; 1 ppm foliar): 58% | percent control B. cinerea ([1]; 1 ppm foliar): (9%) | Disease severity B. cinerea ([1]; 3 ppm foliar): 45% | percent control B. cinerea ([1]; 3 ppm foliar): (29%) | Disease severity B. cinerea ([1]; 6 ppm foliar): 45% | percent control B. cinerea ([1]; 6 ppm foliar): (29%) | Disease severity B. cinerea ([1]; 12 ppm foliar): 30% | percent control B. cinerea ([1]; 12 ppm foliar): (53%) | Disease severity B. cinerea ([1]; 25 ppm foliar): 24% | percent control B. cinerea ([1]; 25 ppm foliar): (63%) | Disease severity B. cinerea ([1]; 50 ppm foliar): 9% | percent control B. cinerea ([1]; 50 ppm foliar): (87%) | control of Botrytis cinerea (summary of Table 3) ([1]; foliar application): significant control | % control Podosphaera xanthii Cucumber 1DBI ([2]; 11.3 ppm): 0 (0 (about 0%)) | % control Podosphaera xanthii Cucumber 1DBI ([2]; 45 ppm): 0 (0 (about 0%)) | % control Podosphaera xanthii Cucumber 1DBI ([2]; 180 ppm): 0 (0 (about 0%)) | % control Sclerotinia sclerotiorum Common bean 1DBI ([3]; 11.3 ppm): 0 (0 (about 0%)) | % control Sclerotinia sclerotiorum Common bean 1DBI ([3]; 45 ppm): 0 (0 (about 0%)) | % control Sclerotinia sclerotiorum Common bean 1DBI ([3]; 180 ppm): 0 (0 (about 0%)) | % control Erysiphe diffusa Soybean 2DAI ([4]; 11.3 ppm): 0 (0 (about 0%)) | % control Erysiphe diffusa Soybean 2DAI ([4]; 45 ppm): 0 (0 (about 0%)) | % control Erysiphe diffusa Soybean 2DAI ([4]; 180 ppm): 0 (0 (about 0%)) | % Control Cochliobolus miyabeanus ([5]; 0.004 ppm in growth media): 0% | % Control Cochliobolus miyabeanus ([5]; 0.016 ppm in growth media): 20% | % Control Cochliobolus miyabeanus ([5]; 0.063 ppm in growth media): 49% | % Control Cochliobolus miyabeanus ([5]; 0.25 ppm in growth media): 73% | % Control Cochliobolus miyabeanus ([5]; 1 ppm in growth media): 87% | % Control Ustilago maydis ([6]; 0.004 ppm in growth media): 6% | % Control Ustilago maydis ([6]; 0.016 ppm in growth media): 12% | % Control Ustilago maydis ([6]; 0.063 ppm in growth media): 90% | % Control Ustilago maydis ([6]; 0.25 ppm in growth media): 100% | % Control Ustilago maydis ([6]; 1 ppm in growth media): 100% | % Control Botrytis cinerea ([7]; 0.004 ppm in growth media): 3% | % Control Botrytis cinerea ([7]; 0.016 ppm in growth media): 2% | % Control Botrytis cinerea ([7]; 0.063 ppm in growth media): 70% | % Control Botrytis cinerea ([7]; 0.25 ppm in growth media): 100% | % Control Botrytis cinerea ([7]; 1 ppm in growth media): 100% | % control Zymoseptoria tritici Wheat 3DAI ([8]; 11.3 ppm): 0 (0 (about 0%)) | % control Zymoseptoria tritici Wheat 4DBI ([8]; 11.3 ppm): 0 (0 (about 0%)) | % control Zymoseptoria tritici Wheat 3DAI ([8]; 45 ppm): 0 (0 (about 0%)) | % control Zymoseptoria tritici Wheat 4DBI ([8]; 45 ppm): 0 (0 (about 0%)) | % control Zymoseptoria tritici Wheat 3DAI ([8]; 180 ppm): 0 (0 (about 0%)) | % control Zymoseptoria tritici Wheat 4DBI ([8]; 180 ppm): 0 (0 (about 0%)) | control of P. viticiola (summary of Table 1) ([9]; 13-800 ppm): significant control | % control Plasmospora viticola 1DAI ([9]; 13 ppm): 0% | % control Plasmospora viticola 7DBI ([9]; 13 ppm): 61% | % control Plasmospora viticola 1DB1 ([9]; 50 ppm): 100% | % control Plasmospora viticola 7DBI ([9]; 50 ppm): 91% | % control Plasmospora viticola 1DAI ([9]; 200 ppm): 0% | % control Plasmospora viticola 1DB1 ([9]; 200 ppm): 100% | % control Plasmospora viticola 1DAI ([9]; 800 ppm): 5% | % control Plasmospora viticola 1DB1 ([9]; 800 ppm): 100% | % control Plasmospora viticola 7DBI ([9]; 800 ppm): 100% | % Control Fusarium graminearum ([10]; 0.004 ppm in growth media): 8% | % Control Fusarium graminearum ([10]; 0.016 ppm in growth media): 4% | % Control Fusarium graminearum ([10]; 0.063 ppm in growth media): 9% | % Control Fusarium graminearum ([10]; 0.25 ppm in growth media): 0% | % Control Fusarium graminearum ([10]; 1 ppm in growth media): 14% | % control Phakopsora pachyrhizi Soybean 3DAI ([11]; 11.3 ppm): 0 (0 (about 0%)) | % control Phakopsora pachyrhizi Soybean 4DBI ([11]; 11.3 ppm): 0 (0 (about 0%)) | % control Phakopsora pachyrhizi Soybean 3DAI ([11]; 45 ppm): 0 (0 (about 0%)) | % control Phakopsora pachyrhizi Soybean 4DBI ([11]; 45 ppm): 0 (0 (about 0%)) | % control Phakopsora pachyrhizi Soybean 3DAI ([11]; 180 ppm): 0 (0 (about 0%)) | % control Phakopsora pachyrhizi Soybean 4DBI ([11]; 180 ppm): 2 (2 (about 50%)) | % control Pyrenophora teres Barley 1DBI ([12]; 11.3 ppm): 0 (0 (about 0%)) | % control Pyrenophora teres Barley 1DBI ([12]; 45 ppm): 0 (0 (about 0%)) | % control Pyrenophora teres Barley 1DBI ([12]; 180 ppm): 0 (0 (about 0%)) | Disease severity P. cubensis Oct. 20, 2020 ([13]; 1 ppm foliar): 52% | Disease severity P. cubensis Oct. 27, 2020 ([13]; 1 ppm foliar): 7% | percent control P. cubensis Oct. 20, 2020 [13, 21]: (26%) | percent control P. cubensis Oct. 27, 2020 [13, 21]: 91% | Disease severity P. cubensis Oct. 20, 2020 ([13]; 3 ppm foliar): 27% | Disease severity P. cubensis Oct. 27, 2020 ([13]; 3 ppm foliar): 7% | percent control P. cubensis Oct. 20, 2020 [13, 22]: (61%) | percent control P. cubensis Oct. 27, 2020 [13, 22]: 91% | Disease severity P. cubensis Oct. 20, 2020 ([13]; 6 ppm foliar): 16% | Disease severity P. cubensis Oct. 27, 2020 ([13]; 6 ppm foliar): 2% | percent control P. cubensis Oct. 20, 2020 [13, 23]: (77%) | percent control P. cubensis Oct. 27, 2020 [13, 23]: 98% | Disease severity P. cubensis Oct. 20, 2020 ([13]; 12 ppm foliar): 3% | Disease severity P. cubensis Oct. 27, 2020 ([13]; 12 ppm foliar): 1% | percent control P. cubensis Oct. 20, 2020 [13, 24]: (95%) | percent control P. cubensis Oct. 27, 2020 [13, 24]: 99% | Disease severity P. cubensis Jul. 28, 2020 ([13]; 15 ppm foliar): 28% | percent control P. cubensis Jul. 28, 2020 ([13]; 15 ppm foliar, vs carrier control): 58% | Disease severity P. cubensis Oct. 20, 2020 ([13]; 25 ppm foliar): 4% | Disease severity P. cubensis Oct. 27, 2020 ([13]; 25 ppm foliar): 1% | percent control P. cubensis Oct. 20, 2020 [13, 25]: (94%) | percent control P. cubensis Oct. 27, 2020 [13, 25]: 99% | Disease severity P. cubensis Jul. 28, 2020 ([13]; 30 ppm foliar): 10% | Disease severity P. cubensis Jul. 14, 2020 ([13]; 30 ppm foliar, carrier control severity 98): 73% | percent control P. cubensis Jul. 14, 2020 [13, 26]: 26% | percent control P. cubensis Jul. 28, 2020 [13, 26]: 85% | Disease severity P. cubensis Oct. 20, 2020 ([13]; 50 ppm foliar): 7% | Disease severity P. cubensis Oct. 27, 2020 ([13]; 50 ppm foliar): 2% | percent control P. cubensis Oct. 20, 2020 [13, 27]: (89%) | percent control P. cubensis Oct. 27, 2020 [13, 27]: 98% | Disease severity P. cubensis Jul. 28, 2020 ([13]; 60 ppm foliar): 18% | percent control P. cubensis Jul. 28, 2020 ([13]; 60 ppm foliar, vs carrier control): 73% | control of Pseudoperonospora cubensis (summary of Table 3) ([13]; foliar application): significant control | % Control Rhynchosporium secalis ([14]; 0.004 ppm in growth media): 21% | % Control Rhynchosporium secalis ([14]; 0.016 ppm in growth media): 71% | % Control Rhynchosporium secalis ([14]; 0.063 ppm in growth media): 98% | % Control Rhynchosporium secalis ([14]; 0.25 ppm in growth media): 99% | % Control Rhynchosporium secalis ([14]; 1 ppm in growth media): 100% | % control Phytophthora infestans Tomato 1DBI ([15]; 11.3 ppm): 0 (0 (about 0%)) | % control Phytophthora infestans Tomato 1DBI ([15]; 45 ppm): 0 (0 (about 0%)) | % control Phytophthora infestans Tomato 1DBI ([15]; 180 ppm): 3 (3 (about 70%)) | % control Alternaria solani Tomato 1DBI ([16]; 11.3 ppm): 0 (0 (about 0%)) | % control Alternaria solani Tomato 1DBI ([16]; 45 ppm): 0 (0 (about 0%)) | % control Alternaria solani Tomato 1DBI ([16]; 180 ppm): 0 (0 (about 0%)) | % control Magnaporthe oryzae Rice 1DBI ([17]; 11.3 ppm): 0 (0 (about 0%)) | % control Magnaporthe oryzae Rice 1DBI ([17]; 45 ppm): 0 (0 (about 0%)) | % control Magnaporthe oryzae Rice 1DBI ([17]; 180 ppm): 0 (0 (about 0%)) | % Control Cladosporium carpophilum ([18]; 0.004 ppm in growth media): 0% | % Control Cladosporium carpophilum ([18]; 0.016 ppm in growth media): 0% | % Control Cladosporium carpophilum ([18]; 0.063 ppm in growth media): 46% | % Control Cladosporium carpophilum ([18]; 0.25 ppm in growth media): 99% | % Control Cladosporium carpophilum ([18]; 1 ppm in growth media): 99% | % Control Zymoseptoria tritici ([19]; 0.004 ppm in growth media): 1% | % Control Zymoseptoria tritici ([19]; 0.016 ppm in growth media): 2% | % Control Zymoseptoria tritici ([19]; 0.063 ppm in growth media): 6% | % Control Zymoseptoria tritici ([19]; 0.25 ppm in growth media): 62% | % Control Zymoseptoria tritici ([19]; 1 ppm in growth media): 100% | % Control [20, 28]: 27% | Disease Severity [20, 28]: 25% | % Control [20, 29]: 22% | Disease Severity [20, 29]: 26% | % Control [20, 30]: 44% | Disease Severity [20, 30]: 19%
